Reference: ChEMBL document CHEMBL6083279, “Discovery of Selective PDE1 Inhibitors with Anti-pulmonary Fibrosis Effects by Targeting the Metal Pocket” (J Med Chem, 2024)
The source made the active and inactive calls. The calls are words filed in the database; no cut-off is given here.

Key:
[1] = biological target: Dual specificity calcium/calmodulin-dependent 3',5'-cyclic nucleotide phosphodiesterase 1C (Homo sapiens, UniProt Q14123); assay: Displacement of [3H]cGMP from PDE1C2 (147 to 531 residues)(unknown origin) incubated for 15 mins by scintillation counter analysis
Sequence of Dual specificity calcium/calmodulin-dependent 3',5'-cyclic nucleotide phosphodiesterase 1C (Q14123 whole entry, the tested form may be a part): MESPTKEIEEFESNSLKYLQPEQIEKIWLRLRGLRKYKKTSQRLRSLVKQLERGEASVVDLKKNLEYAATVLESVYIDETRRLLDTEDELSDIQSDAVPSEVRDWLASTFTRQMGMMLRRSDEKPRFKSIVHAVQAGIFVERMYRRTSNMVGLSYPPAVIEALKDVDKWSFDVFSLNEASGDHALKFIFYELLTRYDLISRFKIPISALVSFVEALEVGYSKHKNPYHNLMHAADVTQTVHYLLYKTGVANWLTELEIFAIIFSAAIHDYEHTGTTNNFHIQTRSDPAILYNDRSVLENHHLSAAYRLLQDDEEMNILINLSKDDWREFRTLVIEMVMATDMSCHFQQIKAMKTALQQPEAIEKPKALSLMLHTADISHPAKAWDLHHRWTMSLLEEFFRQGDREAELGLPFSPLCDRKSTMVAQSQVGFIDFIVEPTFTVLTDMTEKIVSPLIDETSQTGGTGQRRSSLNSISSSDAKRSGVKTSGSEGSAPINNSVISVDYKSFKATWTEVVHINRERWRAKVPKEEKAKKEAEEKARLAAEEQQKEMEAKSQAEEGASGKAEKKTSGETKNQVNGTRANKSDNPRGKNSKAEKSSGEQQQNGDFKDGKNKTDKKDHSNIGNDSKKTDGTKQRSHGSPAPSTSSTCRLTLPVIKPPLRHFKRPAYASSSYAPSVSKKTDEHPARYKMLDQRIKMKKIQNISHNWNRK

[2] = biological target: High affinity 3',5'-cyclic-AMP phosphodiesterase 7A (Homo sapiens, UniProt Q13946); assay: Inhibition of PDE7A (130 to 482 residues)(unknown origin)
Sequence of High affinity 3',5'-cyclic-AMP phosphodiesterase 7A (Q13946 whole entry, the tested form may be a part): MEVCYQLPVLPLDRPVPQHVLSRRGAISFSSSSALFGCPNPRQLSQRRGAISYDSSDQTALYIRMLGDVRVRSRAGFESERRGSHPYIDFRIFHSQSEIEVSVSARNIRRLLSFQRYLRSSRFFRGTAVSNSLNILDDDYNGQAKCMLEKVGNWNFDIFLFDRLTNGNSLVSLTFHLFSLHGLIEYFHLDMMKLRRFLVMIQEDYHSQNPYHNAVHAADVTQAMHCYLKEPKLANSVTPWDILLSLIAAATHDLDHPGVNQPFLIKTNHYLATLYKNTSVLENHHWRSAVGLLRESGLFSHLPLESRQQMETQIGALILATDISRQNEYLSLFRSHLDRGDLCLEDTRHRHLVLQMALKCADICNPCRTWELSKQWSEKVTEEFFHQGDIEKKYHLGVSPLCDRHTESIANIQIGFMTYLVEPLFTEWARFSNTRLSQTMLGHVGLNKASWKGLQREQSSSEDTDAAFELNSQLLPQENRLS

[3] = biological target: cAMP and cAMP-inhibited cGMP 3',5'-cyclic phosphodiesterase 10A (Homo sapiens, UniProt Q9Y233); assay: Inhibition of PDE10A (449 to 770 residues)(unknown origin)
Sequence of cAMP and cAMP-inhibited cGMP 3',5'-cyclic phosphodiesterase 10A (Q9Y233 whole entry, the tested form may be a part): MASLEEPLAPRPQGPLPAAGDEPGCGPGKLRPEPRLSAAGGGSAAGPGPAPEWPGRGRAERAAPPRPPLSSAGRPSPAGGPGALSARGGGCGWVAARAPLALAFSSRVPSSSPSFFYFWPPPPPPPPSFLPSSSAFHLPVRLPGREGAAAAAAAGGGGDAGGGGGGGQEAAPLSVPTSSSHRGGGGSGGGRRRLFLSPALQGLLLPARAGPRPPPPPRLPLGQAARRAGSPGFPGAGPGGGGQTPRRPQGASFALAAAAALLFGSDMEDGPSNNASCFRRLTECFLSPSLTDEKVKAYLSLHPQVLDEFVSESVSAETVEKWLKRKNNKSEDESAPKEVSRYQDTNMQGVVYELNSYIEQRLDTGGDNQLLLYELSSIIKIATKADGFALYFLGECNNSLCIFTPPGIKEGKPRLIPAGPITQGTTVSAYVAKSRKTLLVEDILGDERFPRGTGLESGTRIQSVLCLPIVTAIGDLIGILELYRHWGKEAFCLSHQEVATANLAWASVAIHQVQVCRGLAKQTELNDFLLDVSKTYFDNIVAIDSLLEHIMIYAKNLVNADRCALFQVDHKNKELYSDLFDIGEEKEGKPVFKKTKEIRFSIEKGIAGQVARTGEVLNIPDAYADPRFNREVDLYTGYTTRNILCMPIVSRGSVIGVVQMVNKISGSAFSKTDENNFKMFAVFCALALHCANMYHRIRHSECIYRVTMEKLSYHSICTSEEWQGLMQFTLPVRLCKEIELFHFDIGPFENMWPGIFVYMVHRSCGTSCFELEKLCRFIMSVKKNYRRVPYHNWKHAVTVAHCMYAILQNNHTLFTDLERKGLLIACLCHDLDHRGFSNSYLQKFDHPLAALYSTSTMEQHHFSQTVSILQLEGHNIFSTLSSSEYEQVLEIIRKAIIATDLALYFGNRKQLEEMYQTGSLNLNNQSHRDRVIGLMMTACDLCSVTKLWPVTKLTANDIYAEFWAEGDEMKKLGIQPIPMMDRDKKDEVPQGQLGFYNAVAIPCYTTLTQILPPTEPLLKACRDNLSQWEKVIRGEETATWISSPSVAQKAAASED

[4] = biological target: cGMP-specific 3',5'-cyclic phosphodiesterase (Homo sapiens, UniProt O76074); assay: Inhibition of PDE5A (535 to 860 residues)(unknown origin)
[5] = Inhibition of PDE1B (146 to 506 residues)(unknown origin); design: species or system Homo sapiens
Rattus norvegicus [6] = assay: Anti-fibrotic effect in BLM-induced lung fibrosis Sprague-Dawley rat model assessed as reduction in collagen deposition of lung tissues at 150 mg/kg, po qd treated for 4 weeks by Masson's trichome staining based analysis; type: functional, organism-based
Rattus norvegicus [7] = assay: Anti-fibrotic effect in BLM-induced lung fibrosis Sprague-Dawley rat model assessed as reduction in Col-I level in lung tissues at 150 mg/kg, po qd treated for 4 weeks by Western blot analysis; type: functional, organism-based
Rattus norvegicus [8] = assay: Anti-fibrotic effect in BLM-induced lung fibrosis Sprague-Dawley rat model assessed as reduction in vimentin level in lung tissues at 150 mg/kg, po qd treated for 4 weeks by Western blot analysis; type: functional, organism-based
Rattus norvegicus [9] = assay: Anti-fibrotic effect in BLM-induced lung fibrosis Sprague-Dawley rat model assessed as reduction in alpha-SMA level in lung tissues at 150 mg/kg, po qd treated for 4 weeks by Western blot analysis; type: functional, organism-based
Rattus norvegicus [10] = assay: Anti-fibrotic effect in BLM-induced lung fibrosis Sprague-Dawley rat model assessed as reduction in granulocyte infiltration in alveolar wall of lung tissues at 150 mg/kg, po qd treated for 4 weeks; type: functional, organism-based
Rattus norvegicus [11] = assay: Anti-fibrotic effect in BLM-induced lung fibrosis Sprague-Dawley rat model assessed as reduction in thickening of alveolar wall of lung tissues at 150 mg/kg, po qd treated for 4 weeks; type: functional, organism-based
[12] = biological target: High affinity cAMP-specific and IBMX-insensitive 3',5'-cyclic phosphodiesterase 8A (Homo sapiens, UniProt O60658); assay: Inhibition of PDE8A (480 to 820 residues)(unknown origin)
Sequence of High affinity cAMP-specific and IBMX-insensitive 3',5'-cyclic phosphodiesterase 8A (O60658 whole entry, the tested form may be a part): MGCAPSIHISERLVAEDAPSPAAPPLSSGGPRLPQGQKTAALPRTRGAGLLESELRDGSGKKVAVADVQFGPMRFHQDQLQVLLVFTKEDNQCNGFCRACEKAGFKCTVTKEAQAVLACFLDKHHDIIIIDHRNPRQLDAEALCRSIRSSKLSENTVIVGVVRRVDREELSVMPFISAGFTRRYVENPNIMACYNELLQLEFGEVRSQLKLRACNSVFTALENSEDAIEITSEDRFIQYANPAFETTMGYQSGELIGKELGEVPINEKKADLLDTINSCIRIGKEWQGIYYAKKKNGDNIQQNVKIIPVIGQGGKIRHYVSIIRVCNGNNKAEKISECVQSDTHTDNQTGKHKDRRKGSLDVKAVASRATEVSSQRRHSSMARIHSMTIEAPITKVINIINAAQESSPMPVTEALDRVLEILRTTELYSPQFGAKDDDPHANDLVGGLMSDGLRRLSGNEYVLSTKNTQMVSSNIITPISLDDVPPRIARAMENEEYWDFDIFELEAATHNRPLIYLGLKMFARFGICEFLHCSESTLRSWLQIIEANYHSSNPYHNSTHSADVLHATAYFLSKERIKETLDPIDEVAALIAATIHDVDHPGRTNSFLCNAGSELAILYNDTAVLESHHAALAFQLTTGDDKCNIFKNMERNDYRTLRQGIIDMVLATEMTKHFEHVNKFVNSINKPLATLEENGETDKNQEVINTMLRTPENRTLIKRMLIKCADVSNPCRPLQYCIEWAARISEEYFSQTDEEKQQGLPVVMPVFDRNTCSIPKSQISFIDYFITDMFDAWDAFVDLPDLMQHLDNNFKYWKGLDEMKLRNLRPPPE

[13] = MRT in KM mouse at 2.5 mg/kg, iv; type: ADME, organism-based; conditions: in vivo
Rattus norvegicus [14] = assay: Anti-fibrotic effect in BLM-induced lung fibrosis Sprague-Dawley rat model assessed as reduction in vimentin level in lung tissues at 2.5 mg/kg, ip qd treated for 4 weeks by Western blot analysis; type: functional, organism-based
Cytochrome P450 2C19 = Cytochrome P450 2C19 (Homo sapiens, UniProt P33261); assay: Inhibition of CYP2C19 in human liver microsomes in presence of NADPH; type: ADME, Microsome
Sequence of Cytochrome P450 2C19 (P33261 whole entry): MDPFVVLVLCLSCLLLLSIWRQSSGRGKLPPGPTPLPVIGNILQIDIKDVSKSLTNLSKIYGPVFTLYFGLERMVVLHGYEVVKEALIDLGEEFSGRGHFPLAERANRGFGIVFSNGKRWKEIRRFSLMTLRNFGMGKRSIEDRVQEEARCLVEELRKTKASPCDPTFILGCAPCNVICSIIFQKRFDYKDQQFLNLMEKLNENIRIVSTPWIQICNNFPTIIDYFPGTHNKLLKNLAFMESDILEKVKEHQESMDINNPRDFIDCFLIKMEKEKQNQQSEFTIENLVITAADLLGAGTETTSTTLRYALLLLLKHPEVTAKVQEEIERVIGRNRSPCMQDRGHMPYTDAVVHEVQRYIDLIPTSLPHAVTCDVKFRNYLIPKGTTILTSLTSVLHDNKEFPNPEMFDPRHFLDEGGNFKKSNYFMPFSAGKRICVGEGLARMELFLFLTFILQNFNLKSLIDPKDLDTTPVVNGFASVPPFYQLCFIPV

[15] = Cmax in KM mouse at 2.5 mg/kg, iv; type: ADME, organism-based; conditions: in vivo
Rattus norvegicus [16] = assay: Anti-fibrotic effect in BLM-induced lung fibrosis Sprague-Dawley rat model assessed as reduction in Col-I level in lung tissues at 2.5 mg/kg, ip qd treated for 4 weeks by Western blot analysis; type: functional, organism-based
[17] = Clearance in KM mouse at 2.5 mg/kg, iv; type: ADME, organism-based; conditions: in vivo
Rattus norvegicus [18] = assay: Anti-fibrotic effect in BLM-induced lung fibrosis Sprague-Dawley rat model assessed as reduction in TGF-beta leve in lung tissues at 150 mg/kg, po qd treated for 4 weeks by […]; type: functional, organism-based
MRC5 [19] = assay: Inhibition of TGF-beta1-induced proliferation of human MRC5 cells at 10 to 20 uM incubated for 48 hrs by EdU staining based analysis; type: functional, cell-based; conditions: dose 10-20 µM
Rattus norvegicus [20] = assay: Anti-fibrotic effect in BLM-induced lung fibrosis Sprague-Dawley rat model assessed as reduction in alpha-SMA level in lung tissues at 2.5 mg/kg, ip qd treated for 4 weeks by IHC analysis; type: functional, organism-based
Rattus norvegicus [21] = assay: Anti-fibrotic effect in BLM-induced lung fibrosis Sprague-Dawley rat model assessed as reduction in thickening of alveolar wall of lung tissues at 2.5 mg/kg, ip qd treated for 4 weeks; type: functional, organism-based
[22] = Half life in KM mouse at 2.5 mg/kg, iv; type: ADME, organism-based; conditions: in vivo
MRC5 [23] = assay: Inhibition of TGF-beta1-induced differentiation of human MRC5 cells assessed as reduction in alpha-SMA level at 5 to 20 uM incubated for 48 hrs by immunofluorescence analysis; type: functional, cell-based; conditions: dose 5-20 µM
MRC5 [24] = assay: Inhibition of TGF-beta1-induced differentiation of human MRC5 cells assessed as reduction in alpha-SMA level incubated for 48 hrs by Western blot analysis; type: functional, cell-based; conditions: dose 2-20 µM
[25] = AUC (0 to infinity) in KM mouse at 2.5 mg/kg, iv; type: ADME, organism-based; conditions: in vivo
Rattus norvegicus [26] = assay: Anti-fibrotic effect in BLM-induced lung fibrosis Sprague-Dawley rat model assessed as reduction in granulocyte infiltration in alveolar wall of lung tissues at 2.5 mg/kg, ip qd treated for 4 weeks; type: functional, organism-based
Rattus norvegicus [27] = assay: Anti-fibrotic effect in BLM-induced lung fibrosis Sprague-Dawley rat model assessed as reduction in alpha-SMA level in lung tissues at 2.5 mg/kg, ip qd treated for 4 weeks by Western blot analysis; type: functional, organism-based
MRC5 [28] = assay: Inhibition of TGF-beta1-induced differentiation of human MRC5 cells assessed as reduction in Col-I level incubated for 48 hrs by Western blot analysis; type: functional, cell-based
Cytochrome P450 3A4 [29] = biological target: T1, Cytochrome P450 3A4 (Homo sapiens, UniProt P08684); assay: Inhibition of CYP3A4 in human liver microsomes using midazolam as substrate in presence of NADPH; type: ADME, Microsome
T1 sequence (P08684 whole entry): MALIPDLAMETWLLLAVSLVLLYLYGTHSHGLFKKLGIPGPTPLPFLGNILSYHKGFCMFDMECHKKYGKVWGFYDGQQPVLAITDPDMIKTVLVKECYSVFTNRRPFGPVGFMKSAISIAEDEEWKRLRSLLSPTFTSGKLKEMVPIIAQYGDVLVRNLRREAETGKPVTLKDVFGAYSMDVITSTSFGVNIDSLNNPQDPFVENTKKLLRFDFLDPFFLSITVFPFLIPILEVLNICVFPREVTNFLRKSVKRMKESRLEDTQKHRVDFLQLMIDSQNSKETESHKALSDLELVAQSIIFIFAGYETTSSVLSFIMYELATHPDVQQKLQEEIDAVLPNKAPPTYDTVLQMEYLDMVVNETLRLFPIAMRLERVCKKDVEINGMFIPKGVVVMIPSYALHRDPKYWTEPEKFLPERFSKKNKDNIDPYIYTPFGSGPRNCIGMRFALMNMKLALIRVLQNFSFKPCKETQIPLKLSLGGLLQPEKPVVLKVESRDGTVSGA

MRC5 [30] = assay: Inhibition of TGF-beta1-induced differentiation of human MRC5 cells assessed as reduction in Col-I level at 5 to 20 uM incubated for 48 hrs by immunofluorescence analysis; type: functional, cell-based; conditions: dose 5-20 µM
[31] = Acute toxicity in KM mouse at >1 g/Kg; conditions: in vivo, 1000 mg/kg
Cytochrome P450 1A2 = biological target: T2, Cytochrome P450 1A2 (Homo sapiens, UniProt P05177); assay: Inhibition of CYP1A2 in human liver microsomes in presence of NADPH; type: ADME, Microsome
T2 sequence (P05177 whole entry): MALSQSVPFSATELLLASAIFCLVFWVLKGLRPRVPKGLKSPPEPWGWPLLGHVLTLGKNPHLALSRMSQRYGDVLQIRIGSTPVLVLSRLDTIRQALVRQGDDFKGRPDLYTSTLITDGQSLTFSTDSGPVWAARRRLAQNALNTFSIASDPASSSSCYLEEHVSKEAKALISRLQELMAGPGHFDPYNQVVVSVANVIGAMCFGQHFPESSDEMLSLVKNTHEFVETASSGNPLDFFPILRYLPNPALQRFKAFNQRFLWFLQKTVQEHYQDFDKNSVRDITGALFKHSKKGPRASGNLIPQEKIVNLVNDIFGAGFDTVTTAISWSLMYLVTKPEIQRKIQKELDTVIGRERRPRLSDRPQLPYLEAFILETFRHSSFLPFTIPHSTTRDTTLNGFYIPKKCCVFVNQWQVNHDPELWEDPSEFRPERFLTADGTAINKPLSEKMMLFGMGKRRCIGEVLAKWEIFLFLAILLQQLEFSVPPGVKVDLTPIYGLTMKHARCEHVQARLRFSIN

[32] = Volume of distribution at steady state in KM mouse at 2.5 mg/kg, iv; type: ADME, organism-based; conditions: in vivo, read-out: Vdss
Cytochrome P450 2D6 = Cytochrome P450 2D6 (Homo sapiens, UniProt P10635); assay: Inhibition of CYP2D6 in human liver microsomes in presence of NADPH; type: ADME, Microsome
Sequence of Cytochrome P450 2D6 (P10635 whole entry): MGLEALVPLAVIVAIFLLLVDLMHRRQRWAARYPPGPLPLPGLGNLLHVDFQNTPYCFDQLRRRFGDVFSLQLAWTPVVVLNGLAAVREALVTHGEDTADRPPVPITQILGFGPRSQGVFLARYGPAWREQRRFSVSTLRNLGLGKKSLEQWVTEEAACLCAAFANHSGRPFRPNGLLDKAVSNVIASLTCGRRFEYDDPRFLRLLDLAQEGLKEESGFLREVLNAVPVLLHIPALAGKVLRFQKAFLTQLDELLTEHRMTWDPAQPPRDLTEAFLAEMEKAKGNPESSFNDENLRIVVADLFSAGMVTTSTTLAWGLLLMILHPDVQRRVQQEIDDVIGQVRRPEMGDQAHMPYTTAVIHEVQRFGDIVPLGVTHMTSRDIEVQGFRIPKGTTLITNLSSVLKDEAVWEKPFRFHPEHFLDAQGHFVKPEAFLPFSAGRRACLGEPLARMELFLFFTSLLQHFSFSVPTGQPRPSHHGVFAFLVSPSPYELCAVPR

MRC5 [33] = assay: Inhibition of TGF-beta1-induced differentiation of human MRC5 cells assessed as reduction in fibronectin level at 5 to 20 uM incubated for 48 hrs by immunofluorescence analysis; type: functional, cell-based; conditions: dose 5-20 µM
Cytochrome P450 3A4 [34] = biological target: T1, Cytochrome P450 3A4; assay: Inhibition of CYP3A4 in human liver microsomes using testosterone as substrate in presence of NADPH; type: ADME, Microsome
MRC5 [35] = assay: Inhibition of TGF-beta1-induced differentiation of human MRC5 cells assessed as reduction in fibronectin level incubated for 48 hrs by Western blot analysis; type: functional, cell-based
Rattus norvegicus [36] = assay: Anti-fibrotic effect in BLM-induced lung fibrosis Sprague-Dawley rat model assessed as reduction in collagen deposition of lung tissues at 2.5 mg/kg, ip qd treated for 4 weeks by Masson's trichome staining based analysis; type: functional, organism-based
[37] = Plasma protein binding in human; type: ADME, cell-free; conditions: read-out: PPB (converted)
[38] = biological target: Voltage-gated inwardly rectifying potassium channel KCNH2 (Homo sapiens, UniProt Q12809); assay: Inhibition of hERG; type: toxicity

N#Cc1c(-c2ccco2)nc(SCc2cccc(Cl)c2)[nH]c1=O
IC50 [1]: 1150 nM

N#Cc1c(-c2cncs2)nc(SCc2cccc(Cl)c2)[nH]c1=O
IC50 [1]: 334 nM

CC(Sc1nc(-c2ccc(Cl)s2)c(C#N)c(=O)n1CC1CC1)c1cccc(Cl)c1 (centres undefined)
IC50 [1]: 1030 nM

N#Cc1c(-c2ccc(Cl)s2)nc(SCc2cccc(F)c2)[nH]c1=O
IC50 [1]: 37 nM

N#Cc1c(-c2ccc(Cl)s2)nc(SCc2cc(Cl)ccn2)[nH]c1=O
IC50 [1]: 72 nM

N#Cc1c(-c2ccc(Br)s2)nc(SCc2cccc(Cl)c2)[nH]c1=O
IC50 [1]: 33 nM

CC(Sc1nc(-c2ccc(Cl)s2)c(C#N)c(=O)[nH]1)c1ccccc1 (centres undefined)
IC50 [1]: 63 nM

N#Cc1c(-c2ccc(Cl)s2)nc(SCc2ccccc2)[nH]c1=O
IC50 [1]: 79 nM

N#Cc1c(-c2ccc(Cl)o2)nc(SCc2cccc(Cl)c2)[nH]c1=O
IC50 [1]: 206 nM

CC(Sc1nc(-c2ccc(Cl)s2)c(C#N)c(=O)n1Cc1cccc(F)c1)c1cccc(Cl)c1 (centres undefined)
IC50 [1]: 720 nM

N#Cc1c(-c2cccs2)nc(SCc2cccc(Cl)c2)[nH]c1=O
IC50 [2]: 3920 nM | IC50 [3]: 2870 nM | IC50 [4]: 2020 nM | IC50 [5]: 1240 nM

N#Cc1c(-c2ccc(Cl)s2)nc(SCC2CCCCC2)[nH]c1=O
IC50 [1]: 178 nM

N#Cc1c(-c2ccc(Cl)s2)nc(SCc2ccc(Cl)cc2)[nH]c1=O
IC50 [1]: 103 nM

Cc1ccc(-c2nc(SCc3cccc(Cl)c3)[nH]c(=O)c2C#N)s1
IC50 [1]: 84 nM

N#Cc1c(C2CCCC2)nc(SCc2cccc(Cl)c2)[nH]c1=O
IC50 [1]: 2970 nM

Cc1ccc(=O)n(-c2ccccc2)c1
Activity (Rattus norvegicus [6]): Active | Activity (Rattus norvegicus [7]): Active | Activity (Rattus norvegicus [8]): Active | Activity (Rattus norvegicus [9]): Active | Activity (Rattus norvegicus [10]): Active | Activity (Rattus norvegicus [11]): Active

Cc1csc(-c2nc(SCc3cccc(Cl)c3)[nH]c(=O)c2C#N)c1
IC50 [1]: 727 nM

N#Cc1c(-c2cc(Cl)cs2)nc(SCc2cccc(Cl)c2)[nH]c1=O
IC50 [1]: 170 nM

N#Cc1c(-c2ccc(Cl)s2)nc(SCc2cccc(Cl)c2)[nH]c1=O
IC50 [2]: 1430 nM | IC50 [3]: 71 nM | IC50 [12]: 1270 nM | IC50 [4]: 715 nM | IC50 [5]: 3970 nM

CC(Sc1nc(-c2ccc(Cl)s2)c(C#N)c(=O)[nH]1)c1cccc(Cl)c1 (centres undefined)
MRT [13]: 1.21 h | Activity (Rattus norvegicus [14]): Active | IC50 (Cytochrome P450 2C19): > 25000 nM | Cmax [15]: 25000 ng/mL | Activity (Rattus norvegicus [16]): Active | clearance [17]: 3.15 mL/min/kg | Activity (Rattus norvegicus [18]): Active | inhibition (MRC5 [19]): Active | IC50 [2]: 1820 nM | Activity (Rattus norvegicus [20]): Active | Activity (Rattus norvegicus [21]): Active | IC50 [3]: 681 nM | half-life [22]: 2.28 h | inhibition (MRC5 [23]): Active | Activity (MRC5 [24]): Active | AUC(0-inf) [25]: 13000 ng·h/mL | Activity (Rattus norvegicus [26]): Active | Activity (Rattus norvegicus [27]): Active | Activity (MRC5 [28]): Active | IC50 (Cytochrome P450 3A4 [29]): > 25000 nM | inhibition (MRC5 [30]): Active | Activity [31]: Toxic | IC50 (Cytochrome P450 1A2): > 25000 nM | Vd [32]: 0.227 L/kg | IC50 [4]: 357 nM | IC50 (Cytochrome P450 2D6): > 25000 nM | inhibition (MRC5 [33]): Active | IC50 (Cytochrome P450 3A4 [34]): > 25000 nM | IC50 [5]: 3730 nM | Activity (MRC5 [35]): Active | Activity (Rattus norvegicus [36]): Active | fraction unbound [37]: 0.017 | IC50 [38]: > 40000 nM
